The values that follow come from patent US20100209530A1, “ANTI-ALLERGEN AGENT” (priority 2007, published 2010).

Data set [1] is described as follows: Yellowness (YI value, JIS-K7103-1977). The class given is physicochemical. To be noted: powder. An excerpt: With regard to a preferred yellowness, the YI value in accordance with JIS-K7103-1977 is preferably 50 or less, more preferably 20 or less, and yet more preferably 15 or less.
Data set [2] addresses T1, Cryptomeria japonica pollen allergen (Cryj1) (Cryptomeria japonica, UniProt P18632).
T1 sequence (P18632 22-374): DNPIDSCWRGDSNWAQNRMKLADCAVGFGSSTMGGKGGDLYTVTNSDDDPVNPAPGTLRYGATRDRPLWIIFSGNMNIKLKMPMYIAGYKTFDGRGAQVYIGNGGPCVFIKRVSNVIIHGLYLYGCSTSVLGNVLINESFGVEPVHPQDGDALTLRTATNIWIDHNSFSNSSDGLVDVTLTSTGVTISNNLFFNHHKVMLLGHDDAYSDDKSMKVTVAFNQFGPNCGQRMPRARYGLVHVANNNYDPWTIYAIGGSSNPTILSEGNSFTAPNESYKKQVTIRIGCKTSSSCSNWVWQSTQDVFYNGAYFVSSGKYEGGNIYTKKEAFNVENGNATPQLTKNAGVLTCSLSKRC
The class given is biochemical. To be noted: 1 mg of sample.
Experimental: (§3) The anti-allergen effect of the present invention is evaluated by a sandwich ELISA method, which is widely known as a method for detecting/quantifying an antigen, and is expressed as the percentage allergen inactivation shown in Equation 1. The initial amount of allergen means the amount of allergen used in an ELISA evaluation, and the amount of allergen remaining means the amount of allergen after contacting a sample.
(§4) Percentage allergen inactivation=(1−amount of allergen remaining/initial amount of allergen)×100(%) <Equation 1>
The test procedure for the sandwich ELISA method when Cryptomeria japonica pollen allergen was used was as follows.
1 mg or 10 mg of a sample was weighed, and 500 μL of Cryptomeria japonica pollen allergen (Cryj1) prepared at 10 ng/mL using an antigen diluent was added thereto. […] After 2 hours, the antibody liquid was discarded, each well was washed with washing buffer, a substrate liquid was added to each well, and the wells were allowed to stand at room temperature. After 10 minutes, 2N sulfuric acid was added so as to stop the reaction, and the absorbance at 490 nm was measured. The results are expressed as percentage allergen inactivation of various types of samples by calculating from Equation 1 by the same method as for Dermatophagoides farinae allergen.

Data set [3] deals with T2, Dermatophagoides farinae allergen (DerfII) (Dermatophagoides farinae, UniProt Q00855).
T2 sequence (Q00855 18-146): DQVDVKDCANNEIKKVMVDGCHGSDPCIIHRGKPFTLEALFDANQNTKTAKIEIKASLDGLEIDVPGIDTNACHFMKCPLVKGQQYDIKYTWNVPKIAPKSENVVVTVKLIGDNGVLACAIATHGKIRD
The class given is biochemical. The conditions noted are these: 1 mg of sample.
Experimental: as §3, §4
Anti-allergen effects were evaluated by a sandwich ELISA method employing Dermatophagoides farinae allergen (allergen generally called DerfII) and Cryptomeria japonica pollen allergen (allergen generally called Cryj1). […]
1 mg or 10 mg of a sample was weighed, and 500 μL of Dermatophagoides farinae allergen (DerfII) prepared at 40 ng/mL using an antigen diluent was added thereto. […] After 30 minutes, 2N sulfuric acid was added so as to stop the reaction, and the absorbance at 490 nm was measured. The results were expressed as percentage allergen inactivation of various samples by determining the relationship between amount of allergen and absorbance from an evaluation carried out without using a sample, determining the amount of allergen remaining from the absorbance obtained when evaluating various types of samples, and calculating from equation 1.

The target in data set [4] is T3, Dermatophagoides farinae allergen (Den) (Dermatophagoides farinae, UniProt Q00855).
T3 sequence (Q00855 18-146): T2 sequence (Q00855 18-146)
In words: ELISA, anti-allergen effect of processed fiber product. The conditions noted are these: fabric after washing in 500 mL ion exchanged water 1 minute, air-dried; standardized to blank = 0. Format: biochemical. As for the experimental part: When a test target is an article comprising another substance in addition to an anti-allergen agent, such as a coating agent containing an anti-allergen agent, a resin kneaded with an anti-allergen agent, or a fiber having an anti-allergen agent attached thereto, a blank test is carried out using the same article except that the anti-allergen agent is excluded, and other measurement results may be standardized so that the percentage allergen inactivation of the blank test becomes 0. In this case, as long as it is stated that a measurement result is standardized, the value after standardization may be used as the percentage allergen inactivation.
The anti-allergen effects of a processed fiber product were evaluated as percentage anti-allergen inactivation from Equation 1 above by measuring absorbance by the same ELISA method as for a solid acid powder using Dermatophagoides farinae allergen (Den) as the allergen and dividing […] of fiber into 8, and comparing with the absorbance when a fiber product having no solid acid added thereto was used.

Another data set concerns allergen. In words: Allergen inactivating effect after standing in PBS (discoloration test). Format: biochemical. The conditions noted are these: 1 mg after 3 days in 0.5 mL PBS at room temperature. The protocol:
(§1) 1 mg of anti-allergen agent (1) of Example 2-1 was placed in 0.5 mL of PBS (pH 7.29, containing 0.1% Tween 20 and 0.001% BSA) and allowed to stand at room temperature for 3 days, color change and allergen inactivating effect were then measured, and the results are shown in Table 7.
(§2) 1 mg of tannic acid was placed in 0.5 mL of PBS (pH 7.29, containing 0.1% Tween 20 and 0.001% BSA) and allowed to stand at room temperature for 3 days, color change and allergen inactivating effect were then measured, and the results are shown in Table 7.

The nature of data set [5]: Discoloration test in PBS or ion exchanged water. Format: physicochemical. As for the experimental part:
as §1
1 mg of anti-allergen agent (1) of Example 2-1 was placed in 0.5 mL of ion exchanged water (pH 6.37) and allowed to stand at room temperature for 7 days, color change was then examined, and the result is shown in Table 7.
as §2
1 mg of tannic acid was placed in 0.5 mL of ion exchanged water (pH 6.37) and allowed to stand at room temperature for 7 days, color change was examined, and the result is shown in Table 7.

For the molecule `O=C(OC[C@H]1O[C@@H](OC(=O)c2cc(O)c(O)c(OC(=O)c3cc(O)c(O)c(O)c3)c2)[C@H](OC(=O)c2cc(O)c(O)c(OC(=O)c3cc(O)c(O)c(O)c3)c2)[C@@H](OC(=O)c2cc(O)c(O)c(OC(=O)c3cc(O)c(O)c(O)c3)c2)[C@@H]1OC(=O)c1cc(O)c(O)c(OC(=O)c2cc(O)c(O)c(O)c2)c1)c1cc(O)c(O)c(OC(=O)c2cc(O)c(O)c(O)c2)c1` [Comparative Example 2-1, Tannic Acid], the values for the Yellowness in data set [1] and in data set [1] (listed as tannic acid) were 71.28 and 71.8, respectively. For the same molecule, in data set [2], the “Percentage allergen inactivation (%) Cryj1” value was 97%. Further, the “Percentage allergen inactivation (%) DerfII” value in data set [3] is on record as 95%. The results for the “Percentage allergen inactivation (%)” value (in data set [4]; in the data set with allergen) were “activity disappeared after washing” and “Less than 50%”, respectively. Also, the “Color of solution (after evaluation)” value was “Brown” in data set [5] (1 mg in 0.5 mL PBS pH 7.29 (0.1% Tween 20, 0.001% BSA), room temperature, 3 days) and “Brown” in data set [5] (1 mg in 0.5 mL ion exchanged water pH 6.37, room temperature, 7 days).
